Results published in patent US20120322124A1, “CONTROL OF CONTAMINANT MICROORGANISMS IN FERMENTATION PROCESSES WITH SYNERGISTIC FORMULATIONS CONTAINING STABILIZED CHLORINE DIOXIDE AND QUATERNARY AMMONIUM COMPOUND” (E. I. DU PONT DE NEMOURS AND COMPANY, priority 2010, published 2012).

Assays:
Type in all cases: cell-based
lactic acid bacteria = test: Molasses-based recycle stream treated with SCD, QAC or both: viable bacteria
Procedure: (§1) In this example, a molasses-based fermentation medium was prepared and inoculated with both yeast and lactic acid bacteria. The medium comprised various components as follows:
(§2) Following inoculation, the mixed culture was grown overnight in the molasses medium, after which a recycle stream was prepared by centrifuging the broth at 3000 rpm for 5 minutes. The resulting pellet was separated from the supernatant and reconstituted using sterile deionized water, then adjusted to pH 3.0 using sulfuric acid. 5 ml portions of the reconstituted pellet were then treated as follows: • 1. Untreated • 2. QAC only (60 ppm) • 3. SCD (45 ppm) • 4. SCD/QAC (45 ppm/60 ppm)
(§3) The SCD was FermaSure® fermentation additive, E. I. du Pont de Nemours and Co., Wilmington Del. The quaternary ammonium compound (QAC) was the same DDAC (BTC 1010, Stepan Company, Northfield, Ill.) as used in Example 1.
(§4) Samples were stored in a shaking incubator at 32° C. for 2 hours following which 0.1 ml aliquots were serially diluted and plated on selective media to enumerate surviving yeast and bacteria cells. […] Following this cycle, the SCD and SCD/QAC treated samples were centrifuged as before, and the number of viable yeast and bacterial cells in the resulting pellet was determined.

Viable bacteria = test: Bench-scale successive fermentations with yeast recycle stream from a molasses-based ethanol plant, viable bacteria enumerated
Procedure: In this example, samples of recycle streams comprising primarily inoculant yeast were collected from a molasses-based ethanol plant in Brazil. The samples were used to complete bench-scale fermentations in which the samples were treated with a combination of SCD (FermaSure® fermentation additive, E. I. du Pont de Nemours and Co., Wilmington Del.) with didecyl dimethyl ammonium chloride (BTC 1010, a solution of didecyl dimethyl ammonium chloride, DDAC, same as in Example 1), as quaternary compound. The treated samples were used to carry out successive 8-hour long fermentations, using recovered yeast at the end of each cycle to begin the next run. Viable bacteria were enumerated over 5 fermentation cycles. Results are provided in Table 3 where ND means the combination was not tested.

Lactobacillus brevis = test: Checkerboard assay of SCD with a quaternary ammonium compound against Lactobacillus brevis; parameters: key: no inhibition of growth (NI); partial inhibition (PI); complete inhibition (CI); conditions: SCD 0 ppm, MRS broth pH 5.5, 28 hours at 32° C.
Source text: In this example, stabilized chlorine dioxide (SCD) and a quaternary ammonium chloride (QAC) mixture were used in a checkerboard assay to determine whether their interaction was synergistic against Lactobacillus brevis. The checkerboard assay method is used to analyze interactions between compounds by mixing them in increasing concentrations to determine whether the compounds act synergistically, additively or antagonistically. (See, M. Najjar, D. Kashtanov, M Chikindas, Letters in Applied Microbiology, vol. 45 (2007) 13-18.) L. brevis was cultured overnight in MRS broth (deMan Rogosa and Sharp broth, Difco Laboratories, Inc., Sparks, M.D.) at 32° C. The culture was then diluted and resuspended in fresh MRS broth adjusted to pH 5.5. The number of bacteria in the resuspended culture was determined using standard plate counts. Samples were diluted (1:10) in sterile phosphate-buffered saline (Sigma-Aldrich Co., St. Louis, Mo.) and plated onto the surface of MRS plates. The resuspended culture […] was then used to fill the wells of a 96 well plate (Becton, Dickinson and Co., Franklin Lakes, N.J.). SCD (FermaSure® fermentation additive, E. I. du Pont de Nemours and Co., Wilmington Del.) and a quaternary ammonium compound (BTC 1010, a solution of didecyl dimethyl ammonium chloride, DDAC, Stepan Company, Northfield, Ill.) were then added at the concentrations shown in the “checkerboard” plate diagram below. The plate was covered and incubated for 28 hours at 32° C. Following incubation, the plate was removed and the optical density of each well was determined using a plate reader at 630 nm (PowerWave, BioTek Instruments Inc., Winooski, Vt.). Based on the optical density, each well was scored to determine whether there was no inhibition of growth (NI), partial inhibition (PI), or complete inhibition (CI).
To determine whether any synergistic activity occurred between SCD and the quaternary ammonium compound, the fractional inhibitory concentration (FIC) was determined using the formula:
FIC=[SCD]/MICSCD+[DDAC]/MICDDAC
where [SCD] and [DDAC] are the concentrations of SCD and BTC 1010 that result in partial inhibition and MICSCD and MICDDAC are the minimum inhibitor concentration of SCD and DDAC, respectively. Synergy between the two antimicrobials is determined when the resulting FIC is <1.0.
In this example, SCD (FermaSure® fermentation additive, E. I. du Pont de Nemours and Co., Wilmington Del.) and a second quaternary ammonium compound (BTC 2125, a mixture of n-alkyl dimethyl benzyl ammonium chlorides and n-alkyl dimethyl ethylbenzyl ammonium chlorides, ADBAC/ADEBAC, Stepan Company, Northfield, Ill.) were used in a checkerboard assay to determine whether their interaction was synergistic against Lactobacillus brevis. L. brevis was cultured as above, resuspended in MRS at pH 5.5, and then added […] the wells of a 96 well plate (Becton Dickinson, Franklin Lakes, N.J.). […] Following incubation, the plate was removed and the optical density of each well was determined using a plate reader at 630 nm. Based on the optical density, each well was scored to determine whether there was no inhibition (NI), partial inhibition (PI), or complete inhibition (CI).
To determine whether any synergistic activity occurred between SCD and the ADBAC/ADEBAC quaternary ammonium compound, the fractional inhibitory concentration (FIC) was determined as above using the formula: […]

yeast = test: Molasses-based recycle stream treated with SCD, QAC or both: viable yeast; conditions: QAC only (60 ppm), pH 3.0, 32° C.
Procedure: as §1, §2, §3, §4

[1] = SCD 0 ppm, DDAC 60 ppm, yeast recycle stream, 8-hour fermentations

`CCCCCCCCCC[N+](C)(C)CCCCCCCCCC.[Cl-]` [DDAC, didecyl dimethyl ammonium chloride] was tested, and the “Viable Cells (2 hrs) Bacteria” value (lactic acid bacteria; QAC only (60 ppm), pH 3.0, 32° C., 2 hours) was 8.1 logCFU per milliliter, the “number of viable bacteria, in words” value (lactic acid bacteria; treatments of Table 4 (QAC 60 ppm, SCD 45 ppm, SCD/QAC 45 ppm/60 ppm)) was “did not result in any reduction in viable bacterial cells” and the “Log Viable Bacteria Cycle 1” value (Viable bacteria; [1]) was 7.79. For the same compound, the “Log Viable Bacteria Cycle 2” value (Viable bacteria; [1]) was 7.97, the “efficacy against viable bacteria, in words” value (Viable bacteria; treatments of Table 3 (45 ppm SCD and 60 ppm DDAC; 60 ppm DDAC alone), through 5 cycles of fermentation) was “did not result in any significant inactivation of bacteria” and the “inhibition of growth score based on optical density at 630 nm” value (shortened to “inhibition of growth score based”) (Lactobacillus brevis; DDAC 2 ppm) was “PI”. For the same compound, the “inhibition of growth score based” value (Lactobacillus brevis; DDAC 4 ppm) was “PI”, the “inhibition of growth score based” value (Lactobacillus brevis; DDAC 5 ppm) was “PI” and the “inhibition of growth score based” value (Lactobacillus brevis; DDAC 6 ppm) was “PI”. The “inhibition of growth score based” value (Lactobacillus brevis; DDAC 7 ppm) was “CI” and the “Viable Cells (2 hrs) Yeast” value (yeast) was 8.8 logCFU per milliliter.
